# Results published in PubChem BioAssay (NCI).
#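 1) Cells in 96-well plates. 2) Compound, 48 h, 5 concentrations. 3) Linear interpolation between surrounding doses. 4) Unreached endpoint = highest concentration. TGI denotes the concentration required for complete inhibition of growth.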
# Columns and labels:
# Test in all cases: NCI anticancer screen, dose series, 48 h
# [1] = test system: 786-0 renal
# [2] = test system: A549 NSCLC
# [3] = test system: ACHN renal
# [4] = test system: COLO 205 colon
# [5] = test system: DLD-1 colon
# [6] = test system: HCT-116 colon
# [7] = test system: HOP-62 NSCLC
# [8] = test system: HOP-92 NSCLC
# [9] = test system: HT29 colon
# [10] = test system: IGROV1 ovarian
# [11] = test system: K-562 leukemia
# [12] = test system: KM12 colon
# [13] = test system: KM20L2 colon
# [14] = test system: LOX IMVI melanoma
# [15] = test system: LXFL 529 NSCLC
# [16] = test system: M14 melanoma
# [17] = test system: M19-MEL melanoma
# [18] = test system: MOLT-4 leukemia
# [19] = test system: NCI-H226 lung
# [20] = test system: NCI-H23 lung
# [21] = test system: NCI-H460 lung
# [22] = test system: NCI-H522 lung
# [23] = test system: OVCAR-3 ovarian
# [24] = test system: OVCAR-4 ovarian
# [25] = test system: OVCAR-5 ovarian
# [26] = test system: OVCAR-8 ovarian
# [27] = test system: SF-268 CNS
# [28] = test system: SF-295 CNS
# [29] = test system: SF-539 CNS
# [30] = test system: SK-MEL-28 melanoma
# [31] = test system: SK-OV-3 ovarian
# [32] = test system: SNB-19 CNS
# [33] = test system: SNB-75 CNS
# [34] = test system: SNB-78 CNS
# [35] = test system: SW-620 colon
# [36] = test system: TK-10 renal
# [37] = test system: U251 CNS
# [38] = test system: UACC-257 melanoma
# [39] = test system: UACC-62 melanoma
# [40] = test system: UO-31 renal
# [41] = test system: A498 renal
# [42] = test system: CAKI-1 renal
# [43] = test system: CCRF-CEM leukemia
# [44] = test system: DMS 273 small cell lung
# [45] = test system: EKVX NSCLC
# [46] = test system: HCC-2998 colon
# [47] = test system: HCT-15 colon
# [48] = test system: MALME-3M melanoma
# [49] = test system: RXF 393 renal
# [50] = test system: SK-MEL-2 melanoma
# [51] = test system: SK-MEL-5 melanoma
# [52] = test system: SN12C renal
# [53] = test system: SR leukemia
compound,measurement,setting,value
Oc1ccccc1-c1n[nH]c(=S)n1/N=C/c1ccc(-c2ccc(Br)cc2)o1,TGI,[1],> 100 µM
same,TGI,[2],> 100 µM
same,TGI,[3],92 µM
same,TGI,[4],> 100 µM
same,TGI,[5],> 100 µM
same,TGI,[6],> 100 µM
same,TGI,[7],> 100 µM
same,TGI,[8],47.8 µM
same,TGI,[9],> 100 µM
same,TGI,[10],92.6 µM
same,TGI,[11],> 100 µM
same,TGI,[12],> 100 µM
same,TGI,[13],> 100 µM
same,TGI,[14],56.7 µM
same,TGI,[15],71.4 µM
same,TGI,[16],> 100 µM
same,TGI,[17],> 100 µM
same,TGI,[18],> 100 µM
same,TGI,[19],52.2 µM
same,TGI,[20],43.1 µM
same,TGI,[21],> 100 µM
same,TGI,[22],> 100 µM
same,TGI,[23],80.5 µM
same,TGI,[24],50.5 µM
same,TGI,[25],> 100 µM
same,TGI,[26],90.1 µM
same,TGI,[27],> 100 µM
same,TGI,[28],> 100 µM
same,TGI,[29],> 100 µM
same,TGI,[30],> 100 µM
same,TGI,[31],95.1 µM
same,TGI,[32],56.1 µM
same,TGI,[33],> 100 µM
same,TGI,[34],75.2 µM
same,TGI,[35],> 100 µM
same,TGI,[36],51.1 µM
same,TGI,[37],56.5 µM
same,TGI,[38],59.6 µM
same,TGI,[39],40.3 µM
same,TGI,[40],66.2 µM
COc1cc(Nc2nc3ccc(C(F)(F)F)cc3nc2-c2ccccc2)cc(OC)c1OC,TGI,[1],> 100 µM
same,TGI,[41],78 µM
same,TGI,[2],> 100 µM
same,TGI,[3],> 100 µM
same,TGI,[42],79.4 µM
same,TGI,[43],> 100 µM
same,TGI,[5],> 100 µM
same,TGI,[44],> 100 µM
same,TGI,[45],79.7 µM
same,TGI,[46],25.9 µM
same,TGI,[47],> 100 µM
same,TGI,[7],> 100 µM
same,TGI,[8],6.17 µM
same,TGI,[9],5.31 µM
same,TGI,[10],> 100 µM
same,TGI,[11],> 100 µM
same,TGI,[12],> 100 µM
same,TGI,[13],26 µM
same,TGI,[14],15.5 µM
same,TGI,[15],> 100 µM
same,TGI,[16],> 100 µM
same,TGI,[48],> 100 µM
same,TGI,[18],> 100 µM
same,TGI,[19],65.6 µM
same,TGI,[20],> 100 µM
same,TGI,[21],32.3 µM
same,TGI,[22],93.6 µM
same,TGI,[23],> 100 µM
same,TGI,[24],> 100 µM
same,TGI,[25],53.1 µM
same,TGI,[26],> 100 µM
same,TGI,[49],> 100 µM
same,TGI,[27],> 100 µM
same,TGI,[28],11.6 µM
same,TGI,[29],> 100 µM
same,TGI,[50],> 100 µM
same,TGI,[30],> 100 µM
same,TGI,[51],59.4 µM
same,TGI,[31],> 100 µM
same,TGI,[52],> 100 µM
same,TGI,[33],> 100 µM
same,TGI,[34],> 100 µM
same,TGI,[53],> 100 µM
same,TGI,[35],> 100 µM
same,TGI,[36],> 100 µM
same,TGI,[37],> 100 µM
same,TGI,[38],85 µM
same,TGI,[39],> 100 µM
same,TGI,[40],55.7 µM
